The source of these data is ChEMBL document CHEMBL4257221, “Peptides comprising non-natural amino acids and methods of making and using the same” (2016).

pEC50: −log10 of the molar value. The source made the active and inactive calls. The calls are words filed in the database; no cut-off is given here. Numbered stars: 1 amine (or outer) side, 2 acyl side, 3 side chain; on linkers, the order of the positions; unused ones are H or OH. Square brackets hold non-standard residues; d marks the D form. Peptide text beside a SMILES is read from it. ξ: configuration not given here. X1 = O=C([C@H]1CCC[C@@H]1N[*:1])[*:2]; X2 = O=C([C@H]1CNC[C@@H]1N[*:1])[*:2]; ξβ3hY = NC(CC(=O)O)Cc1ccc(O)cc1; ξβ3hQ = NC(=O)CCC(N)CC(=O)O; ξβ3hN = NC(=O)CC(N)CC(=O)O; ξβ3hL = CC(C)CC(N)CC(=O)O; ξβ3hK = NCCCCC(N)CC(=O)O; ξβ3hT = CC(O)C(N)CC(=O)O; ξβ3hV = CC(C)C(N)CC(=O)O; ξβ3hS = NC(CO)CC(=O)O; βAla = NCCC(=O)O

Broadly, the pEC50 is the EC50 on a negative log10 scale, so that one unit is a factor of ten.

For assay [1], the system named is Mus musculus. As to the kind of experiment: Anti-parkinson's activity in MPTP-induced C57BL/6 mouse model of Parkinson's disease receiving adaptive transfer of splenocytes from 15 ug/day/5 days, ip compound treated donor mouse assessed as TH-positive neurons survival rate in substantia nigra measured on day 7 post MPTP intoxication by FJ-C staining based assay (reference value: 24.5%). In kind it is functional.

The subject of assay [2] is Mus musculus. Nature of the assay: Stimulation of Treg cells function in C57BL/6 mouse splenocytes assessed as suppression of anti-CD3-stimulated effector T cell proliferation pretreated ip daily for 5 days followed by splenocytes isolation and co-culture with untreated splenocytes at 1:1 ratio. In kind it is functional, organism-based.
Assay [3] deals with Mus musculus. As to the kind of experiment: Stimulation of Treg cells function in C57BL/6 mouse splenocytes assessed as suppression of anti-CD3-stimulated CD4+/CD25- naive T cells proliferation at 300 ug, ip pretreated daily for 5 days followed by splenocytes isolation and co-culture with CD4+/CD25- naive T cells. In kind it is functional, organism-based.
Assay [4] has as its target T1, Vasoactive intestinal polypeptide receptor 1 (Homo sapiens, UniProt P32241).
T1 sequence (P32241 whole entry): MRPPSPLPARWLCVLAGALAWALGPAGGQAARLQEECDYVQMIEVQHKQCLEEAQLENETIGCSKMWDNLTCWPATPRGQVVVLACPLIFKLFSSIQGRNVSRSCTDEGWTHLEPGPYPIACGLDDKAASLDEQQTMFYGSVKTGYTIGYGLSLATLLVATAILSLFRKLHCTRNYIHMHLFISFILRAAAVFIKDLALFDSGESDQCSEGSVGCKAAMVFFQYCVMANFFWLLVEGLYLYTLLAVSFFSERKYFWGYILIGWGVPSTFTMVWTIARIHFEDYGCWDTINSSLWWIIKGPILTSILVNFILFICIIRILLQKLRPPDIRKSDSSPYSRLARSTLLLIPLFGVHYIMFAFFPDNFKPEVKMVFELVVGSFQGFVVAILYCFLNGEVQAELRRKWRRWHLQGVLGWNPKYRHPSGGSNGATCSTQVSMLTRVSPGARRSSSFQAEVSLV
As to the kind of experiment: Agonist activity at human VIPR1 expressed in CHOK1 cells assessed as intracellular cAMP accumulation after 60 mins by PathHunter assay. In kind it is functional, cell-based.

The target of assay [5] is T2, Vasoactive intestinal polypeptide receptor 2 (Homo sapiens, UniProt P41587).
T2 sequence (P41587 whole entry): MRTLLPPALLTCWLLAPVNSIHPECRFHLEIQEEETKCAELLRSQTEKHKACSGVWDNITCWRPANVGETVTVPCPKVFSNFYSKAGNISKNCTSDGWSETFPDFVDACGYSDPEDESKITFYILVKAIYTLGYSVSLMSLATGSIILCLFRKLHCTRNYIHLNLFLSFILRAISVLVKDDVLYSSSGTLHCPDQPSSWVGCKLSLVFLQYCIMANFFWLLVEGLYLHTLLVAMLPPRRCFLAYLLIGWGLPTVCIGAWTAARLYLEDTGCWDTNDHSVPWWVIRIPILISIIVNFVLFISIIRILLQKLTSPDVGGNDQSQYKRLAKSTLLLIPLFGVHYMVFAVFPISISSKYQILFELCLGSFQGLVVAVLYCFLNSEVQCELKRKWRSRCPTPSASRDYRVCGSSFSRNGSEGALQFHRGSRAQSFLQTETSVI
Nature of the assay: Agonist activity at human VIPR2 expressed in CHOK1 cells assessed as intracellular cAMP accumulation after 60 mins by PathHunter assay. In kind it is functional, cell-based.

With `CC(=O)N[C@@H](Cc1cnc[nH]1)C(=O)N[C@H]1CCC[C@@H]1C(=O)N[C@@H](CC(=O)O)C(=O)N[C@@H](C)C(=O)N[C@H]1CCC[C@@H]1C(=O)N[C@@H](Cc1ccccc1)C(=O)N[C@H](C(=O)N[C@@H](CCC(=O)O)C(=O)N[C@@H](CC(N)=O)C(=O)N[C@@H](Cc1ccc(O)cc1)C(=O)N[C@H](C(=O)N[C@@H](CCCCN)C(=O)N[C@@H](CC(C)C)C(=O)N[C@@H](CCCNC(=N)N)C(=O)N[C@@H](CCCCN)C(=O)NC(CCC(N)=O)CC(=O)N[C@@H](CC(C)C)C(=O)N[C@@H](C)C(=O)N[C@@H](C)C(=O)N[C@H]1CNC[C@@H]1C(=O)N[C@@H](CCCCN)C(=O)N[C@@H](Cc1ccc(O)cc1)C(=O)N[C@H]1CCC[C@@H]1C(=O)N[C@@H](CC(N)=O)C(=O)N[C@@H](CC(=O)O)C(=O)N[C@@H](CC(C)C)C(=O)NC(CCCCN)CC(=O)N[C@@H](CCCCN)C(=O)NCC(=O)NCCC(=O)NC(CC(=O)O)C(C)O)[C@@H](C)O)[C@@H](C)O` (stereo partly drawn) (Ac-H[X1]DA[X1]FTENYTKLRK[ξβ3hQ]LAA[X2]KY[X1]NDL[ξβ3hK]KG[βAla][ξβ3hT]-OH), the Survival with Mus musculus [1] is recorded as 79.7%. Besides, the Activity entry in the assay with Mus musculus [2] is “Dose-dependent effect”. The outcome in the assay on Mus musculus [3] was Active.

Take `CC[C@H](C)[C@H](NC(=O)[C@H](C)NC(=O)[C@H](CC(N)=O)NC(=O)CC(CC(C)C)NC(=O)[C@H](Cc1ccc(O)cc1)NC(=O)[C@H](CCCCN)NC(=O)[C@H](CCCCN)NC(=O)CC(NC(=O)[C@H](C)NC(=O)[C@H](CC(C)C)NC(=O)[C@H](CCC(N)=O)NC(=O)CC(CCCCN)NC(=O)[C@H](CCCNC(=N)N)NC(=O)[C@H](CC(C)C)NC(=O)[C@H](CCCNC(=N)N)NC(=O)CC(NC(=O)[C@H](Cc1ccc(O)cc1)NC(=O)[C@H](CC(N)=O)NC(=O)[C@H](CC(=O)O)NC(=O)[C@@H](NC(=O)[C@H](Cc1ccccc1)NC(=O)[C@H]1CCC[C@@H]1NC(=O)[C@H](C)NC(=O)[C@H](CC(=O)O)NC(=O)[C@H]1CCC[C@@H]1NC(=O)[C@@H](N)Cc1cnc[nH]1)[C@@H](C)O)C(C)O)C(C)C)C(=O)NC(CC(=O)N[C@@H](CC(N)=O)C(=O)O)CC(C)C` (stereo partly drawn) (H-H[X1]DA[X1]FTDNY[ξβ3hT]RLR[ξβ3hK]QLA[ξβ3hV]KKY[ξβ3hL]NAI[ξβ3hL]N-OH): the results for the negative-log EC50 (pEC50) in assay [4] and in assay [5] were 9.45 and 7.10, respectively.

With `CC(C)C[C@H](NC(=O)[C@H](CC(=O)O)NC(=O)[C@H](CC(N)=O)NC(=O)[C@H]1CCC[C@@H]1NC(=O)[C@H](Cc1ccc(O)cc1)NC(=O)[C@H](CCCCN)NC(=O)[C@H]1CNC[C@@H]1NC(=O)[C@H](C)NC(=O)[C@H](C)NC(=O)[C@H](CC(C)C)NC(=O)[C@H](CCC(N)=O)NC(=O)[C@H](CCCCN)NC(=O)[C@H](CCCNC(=N)N)NC(=O)[C@H](CC(C)C)NC(=O)[C@H](CCCCN)NC(=O)[C@@H](NC(=O)CC(Cc1ccc(O)cc1)NC(=O)CC(CC(N)=O)NC(=O)[C@H](CCC(=O)O)NC(=O)[C@@H](NC(=O)[C@H](Cc1ccccc1)NC(=O)[C@H]1CCC[C@@H]1NC(=O)[C@H](C)NC(=O)[C@H](CC(=O)O)NC(=O)[C@H]1CCC[C@@H]1NC(=O)[C@@H](N)Cc1cnc[nH]1)[C@@H](C)O)[C@@H](C)O)C(=O)NC(CCCCN)CC(=O)N[C@@H](CCCCN)C(=O)NCC(=O)NCCC(=O)N[C@H](C(=O)O)[C@@H](C)O` (stereo partly drawn) (H-H[X1]DA[X1]FTE[ξβ3hN][ξβ3hY]TKLRKQLAA[X2]KY[X1]NDL[ξβ3hK]KG[βAla]T-OH), the negative logarithm of the EC50 (pEC50) in assay [4] was 6.03; in assay [5] it was 7.02.

`CC[C@H](C)[C@H](NC(=O)[C@H](C)NC(=O)[C@H](CC(N)=O)NC(=O)CC(CC(C)C)NC(=O)[C@H](Cc1ccc(O)cc1)NC(=O)[C@H](CCCCN)NC(=O)[C@H](CCCCN)NC(=O)CC(NC(=O)[C@H](C)NC(=O)[C@H](CC(C)C)NC(=O)[C@H](CCC(N)=O)NC(=O)CC(CCCCN)NC(=O)[C@H](CCCNC(=N)N)NC(=O)[C@H](CC(C)C)NC(=O)[C@H](CCCNC(=N)N)NC(=O)CC(NC(=O)[C@H](Cc1ccc(O)cc1)NC(=O)[C@H](CC(N)=O)NC(=O)[C@H](CC(=O)O)NC(=O)[C@@H](NC(=O)[C@H](Cc1ccccc1)NC(=O)CC(NC(=O)[C@H](C)NC(=O)[C@H](CC(=O)O)NC(=O)[C@H]1CCC[C@@H]1NC(=O)[C@@H](N)Cc1cnc[nH]1)C(C)C)[C@@H](C)O)C(C)O)C(C)C)C(=O)NC(CC(=O)N[C@@H](CC(N)=O)C(=O)O)CC(C)C` (stereo partly drawn) (H-H[X1]DA[ξβ3hV]FTDNY[ξβ3hT]RLR[ξβ3hK]QLA[ξβ3hV]KKY[ξβ3hL]NAI[ξβ3hL]N-OH): the pEC50 in assay [4] was 8.35; in assay [5], 6.58.

For the molecule `CC[C@H](C)[C@H](NC(=O)[C@H](C)NC(=O)[C@H](CC(N)=O)NC(=O)CC(CC(C)C)NC(=O)[C@H](Cc1ccc(O)cc1)NC(=O)[C@H](CCCCN)NC(=O)[C@H](CCCCN)NC(=O)CC(NC(=O)[C@H](C)NC(=O)[C@H](CC(C)C)NC(=O)[C@H](CCC(N)=O)NC(=O)CC(CCCCN)NC(=O)[C@H](CCCNC(=N)N)NC(=O)[C@H](CC(C)C)NC(=O)[C@H](CCCNC(=N)N)NC(=O)CC(NC(=O)[C@H](Cc1ccc(O)cc1)NC(=O)[C@H](CC(N)=O)NC(=O)[C@H](CC(=O)O)NC(=O)[C@@H](NC(=O)[C@H](Cc1ccccc1)NC(=O)CC(NC(=O)[C@H](C)NC(=O)[C@H](CC(=O)O)NC(=O)CC(CO)NC(=O)[C@@H](N)Cc1cnc[nH]1)C(C)C)[C@@H](C)O)C(C)O)C(C)C)C(=O)NC(CC(=O)N[C@@H](CC(N)=O)C(=O)O)CC(C)C` (stereo partly drawn) (H-H[ξβ3hS]DA[ξβ3hV]FTDNY[ξβ3hT]RLR[ξβ3hK]QLA[ξβ3hV]KKY[ξβ3hL]NAI[ξβ3hL]N-OH), the negative-log EC50 (pEC50) is 7.19 in assay [4] and 6.14 in assay [5].

Regarding `CC[C@H](C)[C@H](NC(=O)[C@H](C)NC(=O)[C@H](CC(N)=O)NC(=O)CC(CC(C)C)NC(=O)[C@H](Cc1ccc(O)cc1)NC(=O)[C@H](CCCCN)NC(=O)[C@H](CCCCN)NC(=O)CC(NC(=O)[C@H](C)NC(=O)[C@H](CC(C)C)NC(=O)[C@H](CCC(N)=O)NC(=O)CC(CCCCN)NC(=O)[C@H](CCCNC(=N)N)NC(=O)[C@H](CC(C)C)NC(=O)[C@H](CCCNC(=N)N)NC(=O)CC(NC(=O)[C@H](Cc1ccc(O)cc1)NC(=O)CC(CC(N)=O)NC(=O)[C@H](CC(=O)O)NC(=O)[C@@H](NC(=O)[C@H](Cc1ccccc1)NC(=O)CC(NC(=O)[C@H](C)NC(=O)[C@H](CC(=O)O)NC(=O)CC(CO)NC(=O)[C@@H](N)Cc1cnc[nH]1)C(C)C)[C@@H](C)O)C(C)O)C(C)C)C(=O)NC(CC(=O)N[C@@H](CC(N)=O)C(=O)O)CC(C)C` (stereo partly drawn) (H-H[ξβ3hS]DA[ξβ3hV]FTD[ξβ3hN]Y[ξβ3hT]RLR[ξβ3hK]QLA[ξβ3hV]KKY[ξβ3hL]NAI[ξβ3hL]N-OH), the pEC50 was 3.53 in assay [4] and 6.30 in assay [5].
